We go through 14 compounds from patent publication US5043343A (priority 1989, dated 1991).

Counter-ions that a name gives are not always drawn.

Assay [1] addresses muscarinic receptors (3H-OXO-M site, cerebral cortex). Put plainly: Radio ligand binding: displacement of muscarinic agonist 3H-Oxotremorine-M (3H-OXO-M), rat cerebral cortex membranes. Also on record: species or system Hooded Lister rats. The conditions noted are these: 2 nM 3H-OXO-M, 2mM magnesium chloride, tris buffer pH 7.7, 37° C., 30 min.
Assay [2] addresses muscarinic receptors (3H-QNB site, cerebral cortex). The format is binding, Hooded Lister rats. The conditions noted are these: 0.27nM 3H-QNB, tris buffer pH 7.7, 37° C., 30 min; rat cerebral cortex.

Broadly, the IC50 is the concentration needed to halve the response being measured. Higher therefore signals a need for much substance. As to `Nc1noc(C23CCCN(C2)C3)n1` [Example E1, 5-(3-Amino-1,2,4-oxadiazol-5-yl)-1-azabicyclo[3.1.11]heptane], the IC50 came to 0.011 µM in assay [1] and 11 µM in assay [2].
Taken in the same sequence, the figures for `Cc1nnc(C23CCCN(C2)C3)o1` [Example E13, 5-(2-Methyl-1,3,4-oxadiazol-5-yl)-1-azabicyclo[3 1.1]heptane oxalate salt] were 0.207 µM and 16.5 µM.
With `c1ncc(C23CCCN(C2)C3)o1` [Example E3, 5-(1,3-Oxazol-5-yl)-1-azabicyc[3.1.1]heptane oxalate salt], the IC50 in assay [1] stood at 0.037 µM; in assay [2], 6.25 µM.
`COCc1noc(C23CCCN(C2)C3)n1` [Example E9, 5-(3-Methoxymethyl-1,2,4-oxadiazol-5-yl)-1-azabicyclo-[3.1.11]heptane oxalate salt]: the values for the IC50 in assay [1] and in assay [2] were 0.178 µM and 13 µM, respectively.
Turning to `c1coc(C23CCCN(C2)C3)n1` [Example E4, 5-(1,3-Oxazol-2-yl)-1-azabicvclo[3.1.1]heptane oxalate salt], the IC50 was determined as 0.54 µM in assay [1] and 60 µM in assay [2].
With `CCCc1noc(C23CCCN(C2)C3)n1` [Example E6, 5-(3-Propyl-1,2,4-oxadiazol-5-yl)-1-azabicyclo[3.1.11]heptane oxalate salt], the IC50 was 0.04 µM in assay [1] and 1.7 µM in assay [2].
Consider `Cc1noc(C23CCCN(C2)C3)n1` [Example E2, 5-(3-Methyl-1,2,4-oxadiazol-5-yl)-1-azabicyclo[3.1.1]heptane oxalate salt], for which the IC50 in assay [1] was 0.015 µM; in assay [2] it was 5 µM.
The matching figures for `CO/N=C/C12CCCN(C1)C2` [Example E14, oxalate salt]: 0.109 µM and 24 µM.
For `CON=C(C)C12CCCN(C1)C2` [Example E15, E and Z-5-Acetyl-1-azabicyclo[3.1.1]heptane O-methyloxime oxalate salt], the results for the IC50 in assay [1] and in assay [2] were 0.29 µM and 58 µM, respectively.
Consider `CCCCCc1noc(C23CCCN(C2)C3)n1` [Example E10, 5-(3-Pentyl-1,2,4-oxadiazol-5-yl)-1-azabicyclo[3.1.1]heptane oxalate salt], for which the half-maximal inhibitory concentration (IC50) in assay [1] amounted to 0.141 µM; in assay [2] it was 2.4 µM.
For `CCCCc1noc(C23CCCN(C2)C3)n1` [Example E8, 5-(3-Butyl-1,2,4-oxadiazol-5-yl)-1-azabicyclo[3.1.11]heptane oxalate salt], the IC50 in assay [1] is 0.049 µM; in assay [2], 1.95 µM.
Regarding `C1CN2CC(c3nc(C4CC4)no3)(C1)C2` [Example E7, 5-(3-Cyclopropyl-1,2,4-oxadiazol-5-yl)-1-azabicyclo-[3.1.1]heptane oxalate salt], the IC50 is 0.062 µM in assay [1] and 0.58 µM in assay [2].
Taken in the same sequence, the figures for `CCc1noc(C23CCCN(C2)C3)n1` [Example E5, 5-(3-Ethyl-1.2.4-oxadiazol-5-yl)-1-azabicyclo[3.1.11]-heptane oxalate salt] were 0.071 µM and 5.2 µM.
Consider `C/C=C/Cc1noc(C23CCCN(C2)C3)n1` [Example E11, E-5-(3-But-2-enyl-1,2,4-oxadiazol-5-yl)-1-azabicyclo-[3.1.11]heptane oxalate salt], for which the IC50 stood at 0.165 µM in assay [1] and 1.85 µM in assay [2].
